Experimental data taken from patent US5021430A, “Certain N-substituted butyramide derivatives” (Ciba-Geigy Corporation, priority 1987, dated 1991).
pIC50: −log10 of the molar value.

Target: T1, enkephalinase (Rattus norvegicus, UniProt P07861)
T1 construct: synaptic membrane preparation from rat striatum; from tissue; host or cells: rat striatum, synaptic membrane preparation
T1 sequence (P07861 1-750): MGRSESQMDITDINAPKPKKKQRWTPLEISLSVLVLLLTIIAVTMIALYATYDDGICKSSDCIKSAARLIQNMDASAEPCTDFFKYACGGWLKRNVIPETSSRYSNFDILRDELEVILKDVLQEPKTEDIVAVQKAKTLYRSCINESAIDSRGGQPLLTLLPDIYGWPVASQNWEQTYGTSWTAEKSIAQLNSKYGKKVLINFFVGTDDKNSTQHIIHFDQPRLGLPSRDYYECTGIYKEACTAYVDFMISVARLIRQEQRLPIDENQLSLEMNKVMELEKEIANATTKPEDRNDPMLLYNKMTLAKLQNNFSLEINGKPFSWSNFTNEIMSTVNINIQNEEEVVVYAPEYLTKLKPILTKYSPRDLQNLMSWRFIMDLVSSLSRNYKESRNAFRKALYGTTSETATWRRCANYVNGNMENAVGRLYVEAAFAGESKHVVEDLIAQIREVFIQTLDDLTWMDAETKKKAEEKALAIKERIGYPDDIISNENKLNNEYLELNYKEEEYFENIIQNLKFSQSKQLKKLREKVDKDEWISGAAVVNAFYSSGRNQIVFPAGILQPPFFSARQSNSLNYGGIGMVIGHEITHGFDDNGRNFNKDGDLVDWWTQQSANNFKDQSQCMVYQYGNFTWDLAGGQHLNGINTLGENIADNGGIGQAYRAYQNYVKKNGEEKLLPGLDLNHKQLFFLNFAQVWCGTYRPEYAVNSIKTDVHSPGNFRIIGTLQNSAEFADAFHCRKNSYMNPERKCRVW
Experiment: enkephalinase inhibitory activity in vitro (inhibition of 3H-Tyr-gly-gly generation from 3H-Leu-enkephalin)
Assay type: biochemical
Conditions: rat striatum synaptic membrane preparation, pH 6.5, 3H-Leu-enkephalin, 15 minutes at 30° C., 10^-6 M Bestatin
Protocol: The enkephalinase inhibitory activity is determined in vitro by an adaptation of the method of Alstein et al. as described in Life Sciences 28, 185 (1981), as follows:
A mixture of a solution of the test compound in distilled water or distilled water and ethanol diluted with pH 6.5 buffer and of a synaptic membrane preparation from rat striatum is incubated at pH 6.5 with ^3 H-Leu-enkephalin for 15 minutes at 30° C., in the presence of 10^-6 M Bestatin (to inhibit aminopeptidase activity). The reaction is stopped by the addition of 30% acetic acid and the reaction product ^3 H-Tyr-gly-gly is separated from unreacted ^3 H-Leu-enkephalin on a Porapak O column followed by a Cu^++-chelex column. The ^3 H-Tyr-gly-gly is counted by liquid scintillation. The amount of ^3 H-Tyr-gly-gly generated in the presence of test compound as compared to control is then calculated. An IC50 value representing the concentration of test compound required for 50% inhibition of ^3 H-Tyr-gly-gly generation is then determined graphically.

pIC50	pIC50 (unit inferred)	SMILES
~8.30		O=C(O)[C@H](Cc1ccccc1)C[C@@H](Cc1ccccc1)C(=O)N[C@@H](CCc1ccccc1)C(=O)O [N-[(S,S)-2,4-dibenzyl-4-carboxybutyryl]-(L)-homophenylalanine]
	~8.40	O=C(O)[C@H](Cc1ccccc1)C[C@@H](Cc1ccccc1)C(=O)N[C@@H](COCc1ccccc1)C(=O)O [N-[(S,S)-2,4-dibenzyl-4-carboxybutyryl]-O-benzyl-(L)-serine]
~8.22		O=C(O)[C@H](Cc1ccccc1)C[C@@H](Cc1ccccc1)C(=O)N[C@@H](CSCc1ccccc1)C(=O)O [N-[(S,S)-2,4-dibenzyl-4-carboxybutyryl]-S-benzyl-(L)-cysteine]
